According to PMC5596636 (ACS chemical neuroscience, 2016):

Experiments:
mMC3R = mMC3R (Mus musculus, UniProt P33033); assay: cAMP-based β-galactosidase reporter agonist assay in HEK293 cells, mMC3R; conditions: for mMC3R fold difference: EC50 of substituted peptide divided by EC50 of NDP-MSH, potency loss
mMC4R = mMC4R (Mus musculus, UniProt P56450); assay: cAMP-based β-galactosidase reporter agonist assay in HEK293 cells, mMC4R; conditions: for mMC4R fold difference: potency loss
mMC5R = mMC5R (Mus musculus, UniProt P41149); assay: cAMP-based β-galactosidase reporter agonist assay in HEK293 cells, mMC5R; conditions: for mMC5R fold difference: potency loss
mMC5R, sequence (P41149 whole entry): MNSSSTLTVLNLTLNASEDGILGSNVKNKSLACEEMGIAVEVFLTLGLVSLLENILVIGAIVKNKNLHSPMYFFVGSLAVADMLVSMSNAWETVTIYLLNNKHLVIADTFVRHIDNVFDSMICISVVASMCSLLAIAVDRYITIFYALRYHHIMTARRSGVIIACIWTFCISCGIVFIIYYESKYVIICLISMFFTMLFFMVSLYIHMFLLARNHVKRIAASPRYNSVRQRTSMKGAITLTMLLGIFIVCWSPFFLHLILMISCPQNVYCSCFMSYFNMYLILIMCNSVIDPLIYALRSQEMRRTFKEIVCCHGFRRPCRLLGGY

mMC1R [1] = target: T1, mMC1R (Mus musculus, UniProt Q01727); assay: cAMP-based β-galactosidase reporter agonist assay in HEK293 cells, mMC1R; conditions: potency loss
T1 sequence (Q01727 whole entry): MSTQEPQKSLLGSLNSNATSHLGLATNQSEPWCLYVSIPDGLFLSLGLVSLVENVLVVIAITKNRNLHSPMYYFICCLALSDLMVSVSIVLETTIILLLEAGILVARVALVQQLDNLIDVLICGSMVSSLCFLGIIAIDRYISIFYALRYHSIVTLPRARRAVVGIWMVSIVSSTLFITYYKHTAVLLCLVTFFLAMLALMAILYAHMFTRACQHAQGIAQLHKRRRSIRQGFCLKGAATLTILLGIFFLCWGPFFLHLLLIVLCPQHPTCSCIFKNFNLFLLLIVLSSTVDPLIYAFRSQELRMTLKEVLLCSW

mMC1R [2] = target: T1, mMC1R; conditions: B16 murine melanoma cells; relative to α-MSH; cited from earlier work
mMC1R [3] = target: T1, mMC1R; conditions: B16 murine melanoma cells; relative to α-MSH; cited from earlier work; remark: listed apart in the source
rMC3R = conditions: HEK293 cells expressing the rMC3R; relative to α-MSH; cited from earlier work
[4] = EC50 of substituted peptide divided by EC50 of NDP-MSH
[5] = EC50 of substituted peptide divided by EC50 of α-MSH

mMC4R, sequence (P56450 whole entry): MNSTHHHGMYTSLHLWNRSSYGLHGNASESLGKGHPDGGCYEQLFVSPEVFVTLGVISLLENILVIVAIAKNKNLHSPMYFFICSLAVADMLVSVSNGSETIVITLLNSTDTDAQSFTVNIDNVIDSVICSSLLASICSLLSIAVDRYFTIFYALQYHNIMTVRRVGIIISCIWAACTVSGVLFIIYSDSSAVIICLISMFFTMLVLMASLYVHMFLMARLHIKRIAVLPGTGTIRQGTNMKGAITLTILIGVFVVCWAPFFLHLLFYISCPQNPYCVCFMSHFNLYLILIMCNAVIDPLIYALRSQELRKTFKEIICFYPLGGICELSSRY
mMC3R, sequence (P33033 whole entry): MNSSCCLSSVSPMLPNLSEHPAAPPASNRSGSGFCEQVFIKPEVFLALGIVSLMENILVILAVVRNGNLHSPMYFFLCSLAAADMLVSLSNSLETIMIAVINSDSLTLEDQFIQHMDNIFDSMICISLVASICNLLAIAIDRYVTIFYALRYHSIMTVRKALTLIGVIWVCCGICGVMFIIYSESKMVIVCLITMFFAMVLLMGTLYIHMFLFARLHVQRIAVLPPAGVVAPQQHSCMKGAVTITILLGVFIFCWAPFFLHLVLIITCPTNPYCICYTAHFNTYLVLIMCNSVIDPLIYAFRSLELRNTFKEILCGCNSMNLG

| Compound | EC50 (mMC3R) [nM] | mMC3R fold difference (mMC3R) | mMC4R fold difference (mMC4R; [4]) | mMC5R fold difference (mMC5R; [4]) | mMC1R fold difference (mMC1R [1]; [4]) | also measured |
| --- | --- | --- | --- | --- | --- | --- |
| CCCC[C@H](NC(=O)[C@H](CO)NC(=O)[C@H](Cc1ccc(O)cc1)NC(=O)[C@H](CO)NC(C)=O)C(=O)N[C@@H](CCC(=O)O)C(=O)N[C@@H](Cc1c[nH]cn1)C(=O)N[C@@H](C)C(=O)N[C@@H](CCCNC(=N)N)C(=O)N[C@@H](Cc1c[nH]c2ccccc12)C(=O)NCC(=O)N[C@@H](CCCCN)C(=O)N1CCC[C@H]1C(=O)N[C@H](C(N)=O)C(C)C [[Ala^7]NDP-MSH] | 260 ± 64 | 1080 fold | 2370 fold | 180 fold | 2350 fold | – |
| CSCC[C@H](NC(=O)[C@H](CO)NC(=O)[C@H](Cc1ccc(O)cc1)NC(=O)[C@H](CO)NC(C)=O)C(=O)N[C@@H](CCC(=O)O)C(=O)N[C@@H](Cc1c[nH]cn1)C(=O)N[C@@H](Cc1ccccc1)C(=O)N[C@@H](CCCNC(=N)N)C(=O)N[C@@H](Cc1c[nH]c2ccccc12)C(=O)NCC(=O)N[C@@H](CCCCN)C(=O)N1CCC[C@H]1C(=O)N[C@@H](C)C(N)=O [[Ala^13]α-MSH] | 42 ± 26 | – | – | – | – | – |
| CCCC[C@H](NC(=O)[C@H](CO)NC(=O)[C@H](Cc1ccc(O)cc1)NC(=O)[C@H](CO)NC(C)=O)C(=O)N[C@@H](CCC(=O)O)C(=O)N[C@@H](Cc1c[nH]cn1)C(=O)N[C@H](Cc1ccccc1)C(=O)N[C@@H](CCCNC(=N)N)C(=O)N[C@@H](Cc1c[nH]c2ccccc12)C(=O)NCC(=O)N[C@@H](CCCCN)C(=O)N[C@@H](C)C(=O)N[C@H](C(N)=O)C(C)C [[Ala^12]NDP-MSH, Ac-Ser-Tyr-Ser-Nle-Glu-His-DPhe-Arg-Trp-Gly-Lys-Ala-Val-NH2] | 0.36 ± 0.06 | – | 5 fold | – | 4 fold | – |
| CSCC[C@H](NC(=O)[C@H](CO)NC(=O)[C@H](C)NC(=O)[C@H](CO)NC(C)=O)C(=O)N[C@@H](CCC(=O)O)C(=O)N[C@@H](Cc1c[nH]cn1)C(=O)N[C@@H](Cc1ccccc1)C(=O)N[C@@H](CCCNC(=N)N)C(=O)N[C@@H](Cc1c[nH]c2ccccc12)C(=O)NCC(=O)N[C@@H](CCCCN)C(=O)N1CCC[C@H]1C(=O)N[C@H](C(N)=O)C(C)C [[Ala^2]α-MSH] | 6.42 ± 2.56 | – | – | – | – | fold more potent at the mMC3R compared to α-MSH (mMC3R; increased potency relative to α-MSH): 4 fold; fold decreased tyrosinase potency at the mMC1R (mMC1R [2]): equipotent; fold decreased binding affinity at the mMC1R (mMC1R [3]): equipotent; mMC1R fold difference (mMC1R [1]; [5]): 7 fold; fold decreased binding affinity at the rMC3R (rMC3R): 7 fold |
| CSCC[C@H](NC(=O)[C@H](CO)NC(=O)[C@H](Cc1ccc(O)cc1)NC(=O)[C@H](CO)NC(C)=O)C(=O)N[C@@H](CCC(=O)O)C(=O)N[C@@H](Cc1c[nH]cn1)C(=O)N[C@@H](Cc1ccccc1)C(=O)N[C@@H](CCCNC(=N)N)C(=O)N[C@@H](C)C(=O)NCC(=O)N[C@@H](CCCCN)C(=O)N1CCC[C@H]1C(=O)N[C@H](C(N)=O)C(C)C [[Ala^9]α-MSH] | 15700 ± 4870 | – | – | – | – | fold decreased tyrosinase potency at the mMC1R (mMC1R [2]): 120 fold; mMC4R fold difference (mMC4R; [5]): 1500 fold; EC50 (mMC4R; mMC4R EC50, bound, Table 2, EC50 higher than 20 μM): > 20000 nM; mMC5R fold difference (mMC5R; [5]): 1370 fold; EC50 (mMC5R; mMC5R EC50, bound, Table 2, EC50 higher than 20 μM): > 20000 nM; fold decreased binding affinity at the mMC1R (mMC1R [3]): 2000 fold; mMC1R fold difference (mMC1R [1]; [5]): 570 fold; fold decreased binding affinity at the rMC3R (rMC3R): 83 fold |
| CSCC[C@H](NC(=O)[C@H](CO)NC(=O)[C@H](Cc1ccc(O)cc1)NC(=O)[C@H](CO)NC(C)=O)C(=O)N[C@@H](CCC(=O)O)C(=O)N[C@@H](Cc1c[nH]cn1)C(=O)N[C@@H](Cc1ccccc1)C(=O)N[C@@H](CCCNC(=N)N)C(=O)N[C@@H](Cc1c[nH]c2ccccc12)C(=O)NCC(=O)N[C@@H](CCCCN)C(=O)N[C@@H](C)C(=O)N[C@H](C(N)=O)C(C)C [[Ala^12]α-MSH] | 43 ± 14 | – | – | – | – | fold decreased binding affinity at the mMC1R (mMC1R [3]): 10 fold |
| CCCC[C@H](NC(=O)[C@H](CO)NC(=O)[C@H](Cc1ccc(O)cc1)NC(=O)[C@H](C)NC(C)=O)C(=O)N[C@@H](CCC(=O)O)C(=O)N[C@@H](Cc1c[nH]cn1)C(=O)N[C@H](Cc1ccccc1)C(=O)N[C@@H](CCCNC(=N)N)C(=O)N[C@@H](Cc1c[nH]c2ccccc12)C(=O)NCC(=O)N[C@@H](CCCCN)C(=O)N1CCC[C@H]1C(=O)N[C@H](C(N)=O)C(C)C [[Ala^1]NDP-MSH, Ac-Ala-Tyr-Ser-Nle-Glu-His-DPhe-Arg-Trp-Gly-Lys-Pro-Val-NH2] | 0.16 ± 0.017 | – | – | – | – | – |
| CCCC[C@H](NC(=O)[C@H](CO)NC(=O)[C@H](Cc1ccc(O)cc1)NC(=O)[C@H](CO)NC(C)=O)C(=O)N[C@@H](CCC(=O)O)C(=O)N[C@@H](Cc1c[nH]cn1)C(=O)N[C@H](Cc1ccccc1)C(=O)N[C@@H](CCCNC(=N)N)C(=O)N[C@@H](Cc1c[nH]c2ccccc12)C(=O)N[C@@H](C)C(=O)N[C@@H](CCCCN)C(=O)N1CCC[C@H]1C(=O)N[C@H](C(N)=O)C(C)C [[Ala^10]NDP-MSH, Ac-Ser-Tyr-Ser-Nle-Glu-His-DPhe-Arg-Trp-Ala-Lys-Pro-Val-NH2] | 0.13 ± 0.06 | unaltered | unaltered | unaltered | unaltered | – |
| CCCC[C@H](NC(=O)[C@H](C)NC(=O)[C@H](Cc1ccc(O)cc1)NC(=O)[C@H](CO)NC(C)=O)C(=O)N[C@@H](CCC(=O)O)C(=O)N[C@@H](Cc1c[nH]cn1)C(=O)N[C@H](Cc1ccccc1)C(=O)N[C@@H](CCCNC(=N)N)C(=O)N[C@@H](Cc1c[nH]c2ccccc12)C(=O)NCC(=O)N[C@@H](CCCCN)C(=O)N1CCC[C@H]1C(=O)N[C@H](C(N)=O)C(C)C [[Ala^3]NDP-MSH, Ac-Ser-Tyr-Ala-Nle-Glu-His-DPhe-Arg-Trp-Gly-Lys-Pro-Val-NH2] | 0.34 ± 0.08 | – | – | – | – | – |
| CCCC[C@H](NC(=O)[C@H](CO)NC(=O)[C@H](Cc1ccc(O)cc1)NC(=O)[C@H](CO)NC(C)=O)C(=O)N[C@@H](CCC(=O)O)C(=O)N[C@@H](Cc1c[nH]cn1)C(=O)N[C@H](Cc1ccccc1)C(=O)N[C@@H](CCCNC(=N)N)C(=O)N[C@@H](Cc1c[nH]c2ccccc12)C(=O)NCC(=O)N[C@@H](CCCCN)C(=O)N1CCC[C@H]1C(=O)N[C@@H](C)C(N)=O [[Ala^13]NDP-MSH, Ac-Ser-Tyr-Ser-Nle-Glu-His-DPhe-Arg-Trp-Gly-Lys-Pro-Ala-NH2] | 0.3 ± 0.06 | unaltered | unaltered | unaltered | unaltered | – |
| CSCC[C@H](NC(=O)[C@H](CO)NC(=O)[C@H](Cc1ccc(O)cc1)NC(=O)[C@H](CO)NC(C)=O)C(=O)N[C@@H](CCC(=O)O)C(=O)N[C@@H](Cc1c[nH]cn1)C(=O)N[C@@H](Cc1ccccc1)C(=O)N[C@@H](CCCNC(=N)N)C(=O)N[C@@H](Cc1c[nH]c2ccccc12)C(=O)N[C@@H](C)C(=O)N[C@@H](CCCCN)C(=O)N1CCC[C@H]1C(=O)N[C@H](C(N)=O)C(C)C [[Ala^10]α-MSH] | 33 ± 11 | – | – | – | – | – |
| CSCC[C@H](NC(=O)[C@H](CO)NC(=O)[C@H](Cc1ccc(O)cc1)NC(=O)[C@H](CO)NC(C)=O)C(=O)N[C@@H](CCC(=O)O)C(=O)N[C@@H](Cc1c[nH]cn1)C(=O)N[C@@H](Cc1ccccc1)C(=O)N[C@@H](CCCNC(=N)N)C(=O)N[C@@H](Cc1c[nH]c2ccccc12)C(=O)NCC(=O)N[C@@H](C)C(=O)N1CCC[C@H]1C(=O)N[C@H](C(N)=O)C(C)C [[Ala^11]α-MSH] | 49 ± 33 | – | – | – | – | – |
| CCCC[C@H](NC(=O)[C@H](CO)NC(=O)[C@H](Cc1ccc(O)cc1)NC(=O)[C@H](CO)NC(C)=O)C(=O)N[C@@H](CCC(=O)O)C(=O)N[C@@H](Cc1c[nH]cn1)C(=O)N[C@H](Cc1ccccc1)C(=O)N[C@@H](CCCNC(=N)N)C(=O)N[C@@H](Cc1c[nH]c2ccccc12)C(=O)NCC(=O)N[C@@H](C)C(=O)N1CCC[C@H]1C(=O)N[C@H](C(N)=O)C(C)C [[Ala^11]NDP-MSH, Ac-Ser-Tyr-Ser-Nle-Glu-His-DPhe-Arg-Trp-Gly-Ala-Pro-Val-NH2] | 0.17 ± 0.02 | unaltered | unaltered | unaltered | unaltered | – |
| CC(=O)N[C@@H](CO)C(=O)N[C@@H](Cc1ccc(O)cc1)C(=O)N[C@@H](CO)C(=O)N[C@@H](C)C(=O)N[C@@H](CCC(=O)O)C(=O)N[C@@H](Cc1c[nH]cn1)C(=O)N[C@H](Cc1ccccc1)C(=O)N[C@@H](CCCNC(=N)N)C(=O)N[C@@H](Cc1c[nH]c2ccccc12)C(=O)NCC(=O)N[C@@H](CCCCN)C(=O)N1CCC[C@H]1C(=O)N[C@H](C(N)=O)C(C)C [[Ala^4]NDP-MSH, Ac-Ser-Tyr-Ser-Ala-Glu-His-DPhe-Arg-Trp-Gly-Lys-Pro-Val-NH2] | 0.36 ± 0.04 | no differences | no differences | no differences | 5 fold | – |
| CCCC[C@H](NC(=O)[C@H](CO)NC(=O)[C@H](C)NC(=O)[C@H](CO)NC(C)=O)C(=O)N[C@@H](CCC(=O)O)C(=O)N[C@@H](Cc1c[nH]cn1)C(=O)N[C@H](Cc1ccccc1)C(=O)N[C@@H](CCCNC(=N)N)C(=O)N[C@@H](Cc1c[nH]c2ccccc12)C(=O)NCC(=O)N[C@@H](CCCCN)C(=O)N1CCC[C@H]1C(=O)N[C@H](C(N)=O)C(C)C [[Ala^2]NDP-MSH, Ac-Ser-Ala-Ser-Nle-Glu-His-DPhe-Arg-Trp-Gly-Lys-Pro-Val-NH2] | 0.22 ± 0.06 | – | – | – | – | – |
